{"source": "ChEMBL document CHEMBL2203238", "about": "“Hit to Lead optimization of a novel class of squarate-containing polo-like kinases inhibitors” (Bioorg Med Chem Lett, 2012)", "key": {"Mus musculus": {"test_system": "Mus musculus", "experiment": "Toxicity in SCID mouse xenografted with human MIAPaCa2 cells assessed as body weight loss at 100 mg/kg/day, po measured on day 26 to day 44", "type": "organism-based, MIA PaCa-2", "design": "route oral", "details": "in vivo"}, "[1]": {"experiment": "Cmax in mouse at 50 mg/kg, po measured at 1 hr", "type": "ADME, organism-based", "design": "dose 50 mg/kg, route oral", "details": "in vivo"}, "[2]": {"experiment": "Volume of distribution in mouse", "type": "ADME, organism-based", "details": "in vivo"}, "[3]": {"experiment": "Oral bioavailability in mouse", "type": "ADME, organism-based", "details": "in vivo"}, "[4]": {"biological_target": "Mitogen-activated protein kinase 13 (Homo sapiens, UniProt O15264)", "experiment": "Inhibition of recombinant P38delta after 1 hr by scintillation counter analysis in presence of gamma-[33P]ATP"}, "[5]": {"biological_target": "Hepatocyte growth factor receptor (Homo sapiens, UniProt P08581)", "experiment": "Inhibition of recombinant c-MET after 1 hr by scintillation counter analysis in presence of gamma-[33P]ATP"}, "[6]": {"biological_target": "BDNF/NT-3 growth factors receptor (Homo sapiens, UniProt Q16620)", "experiment": "Inhibition of recombinant TRKB after 1 hr by scintillation counter analysis in presence of gamma-[33P]ATP"}, "[7]": {"biological_target": "Non-receptor tyrosine-protein kinase TYK2 (Homo sapiens, UniProt P29597)", "experiment": "Inhibition of recombinant TYK2 after 1 hr by scintillation counter analysis in presence of gamma-[33P]ATP"}, "[8]": {"biological_target": "Proto-oncogene tyrosine-protein kinase Src (Homo sapiens, UniProt P12931)", "experiment": "Inhibition of recombinant SRC after 1 hr by scintillation counter analysis in presence of gamma-[33P]ATP"}, "[9]": {"biological_target": "Rho-associated protein kinase 1 (Homo sapiens, UniProt Q13464)", "sequence (Q13464 whole entry)": "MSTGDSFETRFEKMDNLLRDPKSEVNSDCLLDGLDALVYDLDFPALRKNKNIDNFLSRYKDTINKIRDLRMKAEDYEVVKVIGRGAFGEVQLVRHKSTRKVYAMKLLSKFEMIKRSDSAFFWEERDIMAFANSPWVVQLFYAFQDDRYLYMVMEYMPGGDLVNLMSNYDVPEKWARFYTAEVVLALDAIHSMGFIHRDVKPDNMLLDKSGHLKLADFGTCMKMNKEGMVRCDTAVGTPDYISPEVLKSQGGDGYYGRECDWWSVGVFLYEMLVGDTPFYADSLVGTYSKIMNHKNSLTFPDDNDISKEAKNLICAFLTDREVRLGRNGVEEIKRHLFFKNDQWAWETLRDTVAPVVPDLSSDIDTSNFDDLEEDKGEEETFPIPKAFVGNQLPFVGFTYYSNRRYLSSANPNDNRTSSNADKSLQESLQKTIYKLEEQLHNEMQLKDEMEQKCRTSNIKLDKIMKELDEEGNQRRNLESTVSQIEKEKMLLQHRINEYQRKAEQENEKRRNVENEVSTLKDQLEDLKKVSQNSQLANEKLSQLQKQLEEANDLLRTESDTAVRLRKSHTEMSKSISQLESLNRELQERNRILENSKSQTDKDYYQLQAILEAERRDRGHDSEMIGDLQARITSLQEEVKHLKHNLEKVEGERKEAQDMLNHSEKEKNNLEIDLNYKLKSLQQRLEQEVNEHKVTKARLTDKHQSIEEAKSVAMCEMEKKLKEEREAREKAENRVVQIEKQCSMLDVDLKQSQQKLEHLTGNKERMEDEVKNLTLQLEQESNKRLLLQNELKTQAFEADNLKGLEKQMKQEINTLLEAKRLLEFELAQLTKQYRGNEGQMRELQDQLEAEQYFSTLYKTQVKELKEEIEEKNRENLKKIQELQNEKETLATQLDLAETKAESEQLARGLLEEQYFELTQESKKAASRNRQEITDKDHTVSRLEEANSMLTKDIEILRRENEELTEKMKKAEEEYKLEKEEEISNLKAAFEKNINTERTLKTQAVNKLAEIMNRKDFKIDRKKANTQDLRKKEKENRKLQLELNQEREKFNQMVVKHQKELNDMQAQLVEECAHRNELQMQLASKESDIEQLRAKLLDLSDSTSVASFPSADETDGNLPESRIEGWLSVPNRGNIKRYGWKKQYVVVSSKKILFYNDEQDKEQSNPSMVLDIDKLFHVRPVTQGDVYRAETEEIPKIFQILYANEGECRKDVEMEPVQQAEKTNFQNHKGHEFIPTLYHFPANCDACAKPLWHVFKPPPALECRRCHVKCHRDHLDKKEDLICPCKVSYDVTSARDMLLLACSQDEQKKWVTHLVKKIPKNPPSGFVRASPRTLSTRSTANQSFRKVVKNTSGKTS", "experiment": "Inhibition of recombinant ROCK1 after 1 hr by scintillation counter analysis in presence of gamma-[33P]ATP"}, "[10]": {"biological_target": "Serine/threonine-protein kinase D2 (Homo sapiens, UniProt Q9BZL6)", "sequence (Q9BZL6 whole entry)": "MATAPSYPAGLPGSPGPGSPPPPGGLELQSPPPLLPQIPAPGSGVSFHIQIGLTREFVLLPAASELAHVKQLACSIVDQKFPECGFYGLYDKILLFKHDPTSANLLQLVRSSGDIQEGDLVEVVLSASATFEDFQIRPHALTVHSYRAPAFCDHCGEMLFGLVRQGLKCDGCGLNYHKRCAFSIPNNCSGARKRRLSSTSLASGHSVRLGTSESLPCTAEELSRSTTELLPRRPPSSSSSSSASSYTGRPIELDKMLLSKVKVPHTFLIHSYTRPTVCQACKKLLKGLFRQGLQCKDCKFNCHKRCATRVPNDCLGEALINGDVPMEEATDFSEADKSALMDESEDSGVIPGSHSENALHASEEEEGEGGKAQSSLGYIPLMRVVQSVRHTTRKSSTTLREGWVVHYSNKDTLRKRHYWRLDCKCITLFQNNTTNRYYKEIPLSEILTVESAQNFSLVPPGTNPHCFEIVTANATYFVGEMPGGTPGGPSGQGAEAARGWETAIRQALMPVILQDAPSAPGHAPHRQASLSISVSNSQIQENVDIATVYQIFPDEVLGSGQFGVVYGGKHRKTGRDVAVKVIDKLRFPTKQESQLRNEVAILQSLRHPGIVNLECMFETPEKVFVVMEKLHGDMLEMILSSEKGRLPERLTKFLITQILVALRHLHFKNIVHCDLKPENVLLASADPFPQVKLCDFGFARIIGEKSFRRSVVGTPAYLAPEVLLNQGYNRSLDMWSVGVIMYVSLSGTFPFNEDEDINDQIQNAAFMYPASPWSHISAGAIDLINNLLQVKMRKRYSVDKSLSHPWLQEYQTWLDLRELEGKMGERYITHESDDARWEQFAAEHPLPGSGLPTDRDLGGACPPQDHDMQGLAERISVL", "experiment": "Inhibition of recombinant PKD2 after 1 hr by scintillation counter analysis in presence of gamma-[33P]ATP"}, "[11]": {"biological_target": "Serine/threonine-protein kinase pim-2 (Homo sapiens, UniProt Q9P1W9)", "experiment": "Inhibition of recombinant PIM2 after 1 hr by scintillation counter analysis in presence of gamma-[33P]ATP"}, "[12]": {"experiment": "Inhibition of recombinant PKA after 1 hr by scintillation counter analysis in presence of gamma-[33P]ATP"}, "[13]": {"biological_target": "3-phosphoinositide-dependent protein kinase 1 (Homo sapiens, UniProt O15530)", "experiment": "Inhibition of recombinant PDK1 after 1 hr by scintillation counter analysis in presence of gamma-[33P]ATP"}, "[14]": {"biological_target": "Serine/threonine-protein kinase Nek2 (Homo sapiens, UniProt P51955)", "experiment": "Inhibition of recombinant NEK2 after 1 hr by scintillation counter analysis in presence of gamma-[33P]ATP"}, "[15]": {"biological_target": "MAP kinase-activated protein kinase 3 (Homo sapiens, UniProt Q16644)", "experiment": "Inhibition of recombinant MK3 after 1 hr by scintillation counter analysis in presence of gamma-[33P]ATP"}, "[16]": {"biological_target": "Serine/threonine-protein kinase 3 (Homo sapiens, UniProt Q13188)", "experiment": "Inhibition of recombinant MST2 after 1 hr by scintillation counter analysis in presence of gamma-[33P]ATP"}, "[17]": {"biological_target": "Tyrosine-protein kinase Lyn (Homo sapiens, UniProt P07948)", "sequence (P07948 whole entry)": "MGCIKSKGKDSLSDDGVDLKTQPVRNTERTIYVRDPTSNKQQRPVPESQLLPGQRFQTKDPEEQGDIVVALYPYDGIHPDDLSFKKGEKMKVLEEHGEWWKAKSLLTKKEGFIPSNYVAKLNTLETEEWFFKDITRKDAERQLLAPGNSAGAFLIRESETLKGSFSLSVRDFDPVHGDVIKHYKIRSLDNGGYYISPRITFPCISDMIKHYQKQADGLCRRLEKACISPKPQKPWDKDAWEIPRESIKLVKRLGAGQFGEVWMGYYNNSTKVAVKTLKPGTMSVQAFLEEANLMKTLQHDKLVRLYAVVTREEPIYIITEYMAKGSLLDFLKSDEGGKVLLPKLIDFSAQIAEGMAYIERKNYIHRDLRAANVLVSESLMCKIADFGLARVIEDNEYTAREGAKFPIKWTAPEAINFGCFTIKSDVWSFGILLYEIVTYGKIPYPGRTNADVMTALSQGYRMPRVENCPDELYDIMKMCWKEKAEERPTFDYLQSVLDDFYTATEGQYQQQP", "experiment": "Inhibition of recombinant LYN after 1 hr by scintillation counter analysis in presence of gamma-[33P]ATP"}, "[18]": {"biological_target": "Vascular endothelial growth factor receptor 2 (Homo sapiens, UniProt P35968)", "experiment": "Inhibition of recombinant KDR after 1 hr by scintillation counter analysis in presence of gamma-[33P]ATP"}, "[19]": {"biological_target": "Tyrosine-protein kinase ITK/TSK (Homo sapiens, UniProt Q08881)", "sequence (Q08881 whole entry)": "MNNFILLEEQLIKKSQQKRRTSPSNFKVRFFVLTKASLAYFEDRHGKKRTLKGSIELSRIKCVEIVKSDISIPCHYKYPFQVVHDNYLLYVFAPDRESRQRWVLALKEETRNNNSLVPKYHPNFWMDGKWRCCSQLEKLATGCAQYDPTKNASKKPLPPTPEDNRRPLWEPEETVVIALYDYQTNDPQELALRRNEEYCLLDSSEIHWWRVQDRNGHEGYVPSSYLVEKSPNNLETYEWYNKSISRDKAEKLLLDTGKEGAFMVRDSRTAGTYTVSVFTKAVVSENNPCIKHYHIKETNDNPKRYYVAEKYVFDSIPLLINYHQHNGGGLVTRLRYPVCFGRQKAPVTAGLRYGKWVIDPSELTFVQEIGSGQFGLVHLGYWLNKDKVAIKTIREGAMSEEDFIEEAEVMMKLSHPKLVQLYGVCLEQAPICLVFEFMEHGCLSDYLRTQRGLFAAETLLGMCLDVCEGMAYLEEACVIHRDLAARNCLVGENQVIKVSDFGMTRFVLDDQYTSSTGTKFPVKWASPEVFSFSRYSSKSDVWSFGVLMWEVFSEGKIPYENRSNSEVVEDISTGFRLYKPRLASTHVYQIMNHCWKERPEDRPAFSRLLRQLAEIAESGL", "experiment": "Inhibition of recombinant ITK after 1 hr by scintillation counter analysis in presence of gamma-[33P]ATP"}, "[20]": {"biological_target": "Interleukin-1 receptor-associated kinase 4 (Homo sapiens, UniProt Q9NWZ3)", "sequence (Q9NWZ3 whole entry)": "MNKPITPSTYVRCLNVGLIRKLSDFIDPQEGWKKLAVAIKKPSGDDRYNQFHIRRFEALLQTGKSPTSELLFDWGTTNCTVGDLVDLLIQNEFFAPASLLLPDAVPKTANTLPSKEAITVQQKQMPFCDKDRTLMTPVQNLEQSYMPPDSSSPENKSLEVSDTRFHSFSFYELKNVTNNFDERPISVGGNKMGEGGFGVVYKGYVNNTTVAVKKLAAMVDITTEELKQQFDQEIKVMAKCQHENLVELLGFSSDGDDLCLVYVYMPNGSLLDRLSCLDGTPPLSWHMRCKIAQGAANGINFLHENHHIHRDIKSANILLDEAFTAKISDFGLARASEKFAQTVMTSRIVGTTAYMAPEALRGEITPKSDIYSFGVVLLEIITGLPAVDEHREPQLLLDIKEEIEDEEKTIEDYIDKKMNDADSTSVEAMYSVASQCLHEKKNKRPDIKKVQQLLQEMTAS", "experiment": "Inhibition of recombinant IRAK4 after 1 hr by scintillation counter analysis in presence of gamma-[33P]ATP"}, "[21]": {"biological_target": "Glycogen synthase kinase-3 alpha (Homo sapiens, UniProt P49840)", "experiment": "Inhibition of recombinant GSK3A after 1 hr by scintillation counter analysis in presence of gamma-[33P]ATP"}, "[22]": {"biological_target": "Receptor-type tyrosine-protein kinase FLT3 (Homo sapiens, UniProt P36888)", "sequence (P36888 whole entry)": "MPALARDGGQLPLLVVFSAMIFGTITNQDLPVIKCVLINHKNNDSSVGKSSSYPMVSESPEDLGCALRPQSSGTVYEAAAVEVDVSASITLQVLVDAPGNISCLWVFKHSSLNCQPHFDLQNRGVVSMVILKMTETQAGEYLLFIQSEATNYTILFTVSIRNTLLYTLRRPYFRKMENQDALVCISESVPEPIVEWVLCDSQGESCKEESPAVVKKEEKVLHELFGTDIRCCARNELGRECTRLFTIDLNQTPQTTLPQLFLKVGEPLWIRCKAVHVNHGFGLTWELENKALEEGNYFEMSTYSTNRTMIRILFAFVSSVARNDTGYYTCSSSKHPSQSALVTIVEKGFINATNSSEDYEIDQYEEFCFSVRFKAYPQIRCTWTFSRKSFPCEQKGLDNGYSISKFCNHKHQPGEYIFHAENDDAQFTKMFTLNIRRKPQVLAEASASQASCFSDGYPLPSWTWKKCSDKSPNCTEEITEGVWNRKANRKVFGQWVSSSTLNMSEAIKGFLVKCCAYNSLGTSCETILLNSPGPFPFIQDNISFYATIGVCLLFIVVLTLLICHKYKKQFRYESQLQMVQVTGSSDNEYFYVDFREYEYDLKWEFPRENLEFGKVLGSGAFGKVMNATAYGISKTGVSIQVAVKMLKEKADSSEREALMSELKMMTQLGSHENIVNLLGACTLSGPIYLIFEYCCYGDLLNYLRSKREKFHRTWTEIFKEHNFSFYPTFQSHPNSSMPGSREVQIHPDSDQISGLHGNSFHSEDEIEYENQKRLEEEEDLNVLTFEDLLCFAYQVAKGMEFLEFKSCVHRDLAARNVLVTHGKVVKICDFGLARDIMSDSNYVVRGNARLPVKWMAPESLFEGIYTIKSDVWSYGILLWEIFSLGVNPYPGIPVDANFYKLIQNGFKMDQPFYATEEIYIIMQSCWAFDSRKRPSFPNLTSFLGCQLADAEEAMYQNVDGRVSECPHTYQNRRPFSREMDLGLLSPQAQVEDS", "experiment": "Inhibition of recombinant FLT3 after 1 hr by scintillation counter analysis in presence of gamma-[33P]ATP"}, "[23]": {"biological_target": "Vascular endothelial growth factor receptor 1 (Homo sapiens, UniProt P17948)", "experiment": "Inhibition of recombinant FLT1 after 1 hr by scintillation counter analysis in presence of gamma-[33P]ATP"}, "[24]": {"biological_target": "Mitogen-activated protein kinase 1 (Homo sapiens, UniProt P28482)", "experiment": "Inhibition of recombinant ERK2 after 1 hr by scintillation counter analysis in presence of gamma-[33P]ATP"}, "[25]": {"experiment": "Inhibition of recombinant CK2 after 1 hr by scintillation counter analysis in presence of gamma-[33P]ATP"}, "[26]": {"biological_target": "Calcium/calmodulin-dependent protein kinase type IV (Homo sapiens, UniProt Q16566)", "experiment": "Inhibition of recombinant CAMK4 after 1 hr by scintillation counter analysis in presence of gamma-[33P]ATP"}, "[27]": {"biological_target": "Serine/threonine-protein kinase Chk2 (Homo sapiens, UniProt O96017)", "experiment": "Inhibition of recombinant CHK2 after 1 hr by scintillation counter analysis in presence of gamma-[33P]ATP"}, "[28]": {"biological_target": "MAP/microtubule affinity-regulating kinase 3 (Homo sapiens, UniProt P27448)", "experiment": "Inhibition of recombinant CTAK1 after 1 hr by scintillation counter analysis in presence of gamma-[33P]ATP"}, "[29]": {"biological_target": "RAC-beta serine/threonine-protein kinase (Homo sapiens, UniProt P31751)", "experiment": "Inhibition of recombinant AKT2 after 1 hr by scintillation counter analysis in presence of gamma-[33P]ATP"}, "[30]": {"biological_target": "5'-AMP-activated protein kinase subunit beta-1 (Homo sapiens, UniProt Q9Y478)", "experiment": "Inhibition of recombinant AMPK after 1 hr by scintillation counter analysis in presence of gamma-[33P]ATP"}, "[31]": {"biological_target": "Serine/threonine-protein kinase PLK4 (Homo sapiens, UniProt O00444)", "experiment": "Inhibition of recombinant PLK4 after 1 hr by scintillation counter analysis in presence of gamma-[33P]ATP"}, "[32]": {"biological_target": "Cell division control protein 42 homolog (Homo sapiens, UniProt P60953)", "sequence (P60953 whole entry)": "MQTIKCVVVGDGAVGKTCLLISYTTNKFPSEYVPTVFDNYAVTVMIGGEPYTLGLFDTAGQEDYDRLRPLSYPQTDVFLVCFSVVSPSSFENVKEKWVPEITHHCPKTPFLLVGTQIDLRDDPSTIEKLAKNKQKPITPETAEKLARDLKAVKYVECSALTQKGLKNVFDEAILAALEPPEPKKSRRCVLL", "experiment": "Inhibition of recombinant CDC42 after 1 hr by scintillation counter analysis in presence of gamma-[33P]ATP"}, "[33]": {"biological_target": "Serine/threonine-protein kinase PLK2 (Homo sapiens, UniProt Q9NYY3)", "experiment": "Inhibition of recombinant PLK2 after 1 hr by scintillation counter analysis in presence of gamma-[33P]ATP"}, "[34]": {"biological_target": "Serine/threonine-protein kinase Chk1 (Homo sapiens, UniProt O14757)", "experiment": "Inhibition of recombinant CHK1 after 1 hr by scintillation counter analysis in presence of gamma-[33P]ATP"}, "[35]": {"biological_target": "RAC-alpha serine/threonine-protein kinase (Homo sapiens, UniProt P31749)", "experiment": "Inhibition of recombinant AKT1 after 1 hr by scintillation counter analysis in presence of gamma-[33P]ATP"}}}
{"smiles": "CC(C)(C)Nc1c(Nc2ccnc(Nc3ccc(-c4ccncc4)cc3)n2)c(=O)c1=O", "values": [{"measurement": "Activity", "setting": "Mus musculus", "value": "Non-toxic"}, {"measurement": "Cmax", "setting": "[1]", "value": 5.4, "unit": "µM"}, {"measurement": "Vd", "setting": "[2]", "value": 3.7, "unit": "L/kg"}, {"measurement": "bioavailability", "setting": "[3]", "value": 100, "unit": "%"}, {"measurement": "Ki", "setting": "[4]", "value": 5900, "unit": "nM"}, {"measurement": "Ki", "setting": "[5]", "value": 1600, "unit": "nM"}, {"measurement": "Ki", "setting": "[6]", "value": "> 4500", "unit": "nM"}, {"measurement": "Ki", "setting": "[7]", "value": "> 1900", "unit": "nM"}, {"measurement": "Ki", "setting": "[8]", "value": "> 1900", "unit": "nM"}, {"measurement": "Ki", "setting": "[9]", "value": 220, "unit": "nM"}, {"measurement": "Ki", "setting": "[10]", "value": 175, "unit": "nM"}, {"measurement": "Ki", "setting": "[11]", "value": "> 1400", "unit": "nM"}, {"measurement": "Ki", "setting": "[12]", "value": "> 7500", "unit": "nM"}, {"measurement": "Ki", "setting": "[13]", "value": 71, "unit": "nM"}, {"measurement": "Ki", "setting": "[14]", "value": "> 9200", "unit": "nM"}, {"measurement": "Ki", "setting": "[15]", "value": "> 9200", "unit": "nM"}, {"measurement": "Ki", "setting": "[16]", "value": 2900, "unit": "nM"}, {"measurement": "Ki", "setting": "[17]", "value": "> 1600", "unit": "nM"}, {"measurement": "Ki", "setting": "[18]", "value": 98, "unit": "nM"}, {"measurement": "Ki", "setting": "[19]", "value": "> 1500", "unit": "nM"}, {"measurement": "Ki", "setting": "[20]", "value": "> 9900", "unit": "nM"}, {"measurement": "Ki", "setting": "[21]", "value": 21, "unit": "nM"}, {"measurement": "Ki", "setting": "[22]", "value": 494, "unit": "nM"}, {"measurement": "Ki", "setting": "[23]", "value": 14, "unit": "nM"}, {"measurement": "Ki", "setting": "[24]", "value": 7200, "unit": "nM"}, {"measurement": "Ki", "setting": "[25]", "value": 276, "unit": "nM"}, {"measurement": "Ki", "setting": "[26]", "value": "> 8500", "unit": "nM"}, {"measurement": "Ki", "setting": "[27]", "value": 88, "unit": "nM"}, {"measurement": "Ki", "setting": "[28]", "value": 4830, "unit": "nM"}, {"measurement": "Ki", "setting": "[29]", "value": "> 8000", "unit": "nM"}, {"measurement": "Ki", "setting": "[30]", "value": 333, "unit": "nM"}, {"measurement": "Ki", "setting": "[31]", "value": 7, "unit": "nM"}, {"measurement": "Ki", "setting": "[32]", "value": "> 4400", "unit": "nM"}, {"measurement": "Ki", "setting": "[33]", "value": 2, "unit": "nM"}, {"measurement": "Ki", "setting": "[34]", "value": 167, "unit": "nM"}, {"measurement": "Ki", "setting": "[35]", "value": "> 8000", "unit": "nM"}]}
